Measurements from patent publication US9695155B2, “Herbicidal substituted pyrimidinyloxy benzene compounds” (E. I. DU PONT DE NEMOURS AND COMPANY, priority 2013, dated 2017).

Assays:
cupgrass, woolly [1] = test: Test C preemergence; type: in vivo, Eriochloa villosa; details: for Cupgrass, Woolly plant response rating: preemergence, scale 0 (no effect) to 100 (complete control)
Excerpt: Seeds of plant species selected from blackgrass (Alopecurus myosuroides), Italian ryegrass (Lolium multiflorum), wheat, winter (winter wheat, Triticum aestivum), galium (catchweed bedstraw, Galium aparine), corn (Zea mays), large (Lg) crabgrass (Digitaria sanguinalis), giant foxtail (Setaria faberii), johnsongrass (Sorghum halepense), lambsquarters (Chenopodium album), morningglory (Ipomoea coccinea), yellow nutsedge (Cyperus esculentus), pigweed (Amaranthus retroflexus), ragweed (common ragweed, Ambrosia elatior), soybean (Glycine max), barnyardgrass (Echinochloa crus-galli), oilseed rape (Brassica napus), waterhemp (common waterhemp, Amaranthus rudis), kochia (Kochia scoparia), wild oat (Avena fatua), surinam grass (Brachiaria decumbens), foxtail, green (green foxtail, Setaria viridis), goosegrass (Eleusine indica), bromegrass, downy (downy bromegrass, Bromus tectorum), nightshade (eastern black nightshade, Solanum ptycanthum), cocklebur (common cocklebur, Xanthium strumarium), cupgrass, woolly (woolly cupgrass, Eriochloa villosa), bermudagrass (Cynodon dactylon), sunflower, (common oilseed sunflower, Helianthus annuus), Russian thistle (Salsola kali), and velvetleaf (Abutilon theophrasti) were planted into a blend of loam soil and sand and treated preemergence with test chemicals formulated in a non-phytotoxic solvent mixture which included a surfactant.
At the same time, plants selected from these crop and weed species and also barley, winter (winter barley, Hordeum vulgare), windgrass (Apera spica-venti), chickweed (common chickweed, Stellaria media), deadnettle (henbit deadnettle, Lamium amplexicaule), and canarygrass (littleseed canarygrass, Phalaris minor) were planted in pots containing Redi-Earth® planting medium (Scotts Company, 14111 Scottslawn Road, Marysville, Ohio 43041) comprising spaghnum peat moss, vermiculite, wetting agent and starter nutrients and treated with postemergence applications of test chemicals formulated in the same manner. Plants ranged in height from 2 to 18 cm (1- to 4-leaf stage) for postemergence treatments. Treated plants and controls were maintained in a greenhouse for 13 to 15 days, after which time all species were compared to controls and visually evaluated. Plant response ratings, summarized in Table C, are based on a scale of 0 to 100 where 0 is no effect and 100 is complete control. A dash (-) response means no test result.

winter wheat = test: Test D postemergence; type: in vivo, Triticum aestivum; details: Triticum aestivum, post-emergence
Method in brief: (§1)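 Greenhouse herbicide screen. Sowing into silt loam for preemergence application; foliar application to 2–18 cm seedlings in potting mix for postemergence. 0–100 visual control rating after 7–21 d.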

spring wheat = test: Test D postemergence; type: in vivo, Triticum aestivum; details: Triticum aestivum, post-emergence
Method in brief: as §1

cupgrass, woolly [2] = test: Test C postemergence; type: in vivo, Eriochloa villosa; details: for Plant response rating (0 to 100), Cupgrass, Woolly: postemergence; for Plant response rating, Cupgrass, Woolly: Postemergence, scale 0 to 100 (0 no effect, 100 complete control)
Method in brief: (§2)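 Plants were kept under greenhouse conditions for 13–15 days following spray. Pre-emergent application went to soil (loam–sand), post-emergent to foliage at 1–4 leaves. Evaluation: visual, percent control against untreated checks.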

Russian thistle = test: Test D postemergence; type: in vivo, Salsola kali
Excerpt: Seeds of plant species selected from bluegrass (annual bluegrass, Poa annua), blackgrass (Alopecurus myosuroides), canarygrass (littleseed canarygrass, Phalaris minor), chickweed (common chickweed, Stellaria media), galium (catchweed bedstraw, Galium aparine), bromegrass, downy (downy bromegrass, Bromus tectorum), field poppy (Papaver rhoeas), field violet (Viola arvensis), green foxtail (Setaria viridis), deadnettle (henbit deadnettle, Lamium amplexicaule), Italian ryegrass (Lolium multiflorum), kochia (Kochia scoparia), lambsquarters (Chenopodium album), oilseed rape (Brassica napus), pigweed (Amaranthus retroflexus), chamomile (scentless chamomile, Matricaria inodora), Russian thistle (Salsola kali), speedwell (bird's-eye speedwell, Veronica persica), spring barley (Hordeum vulgare), spring wheat (Triticum aestivum), wild buckwheat (Polygonum convolvulus), wild mustard (Sinapis arvensis), wild oat (Avena fatua), wild radish (Raphanus raphanistrum), windgrass (Apera spica-venti), winter barley (Hordeum vulgare), and winter wheat (Triticum aestivum) were planted into a silt loam soil and treated preemergence with test chemicals formulated in a non-phytotoxic solvent mixture which included a surfactant.
At the same time, these species were planted in pots containing Redi-Earth® planting medium (Scotts Company, 14111 Scottslawn Road, Marysville, Ohio 43041) comprising spaghnum peat moss, vermiculite, wetting agent and starter nutrients and treated with postemergence applications of the test chemicals formulated in the same manner. Plants ranged in height from 2 to 18 cm (1- to 4-leaf stage). Treated plants and controls were maintained in a controlled growth environment for 7 to 21 days after which time all species were compared to controls and visually evaluated. Plant response ratings, summarized in Table D, are based on a scale of 0 to 100 where 0 is no effect and 100 is complete control. A dash (-) response means no test result.

cocklebur = test: Test C postemergence; type: in vivo, Xanthium strumarium; details: for Plant response rating (0 to 100), Cocklebur: postemergence; for Plant response rating, Cocklebur: Postemergence, scale 0 to 100 (0 no effect, 100 complete control)
Method in brief: as §2

Clc1cnc(Oc2ccccc2-n2cc(Br)cn2)nc1 [Compound 7, 2-[2-(4-bromo-1H-pyrazol-1-yl)phenoxy]-5-chloropyrimidine]
Cupgrass, Woolly plant response rating (cupgrass, woolly [1]; 62 g ai/ha): 55
Cupgrass, Woolly plant response rating (cupgrass, woolly [1]; 125 g ai/ha): 98
Cupgrass, Woolly plant response rating (cupgrass, woolly [1]; 250 g ai/ha): 98
Plant response rating, Cupgrass, Woolly (cupgrass, woolly [1]; Preemergence, 31 g ai/ha, scale 0 to 100, 0 no effect, 100 complete control): 15
plant injury at 16 g/ha (winter wheat; 16 g ai/ha, scale 0-100, read-out: Plant response rating, Wheat, Winter): 0%
plant injury at 31 g/ha (winter wheat; 31 g ai/ha, scale 0 to 100 (0 no effect, 100 complete control), read-out: Plant response rating, Wheat, Winter): 0%
plant injury at 62 g/ha (winter wheat; 62 g ai/ha, scale 0 to 100 (0 no effect, 100 complete control), read-out: Plant response rating, Wheat, Winter): 0%
plant injury at 125 g/ha (winter wheat; 125 g ai/ha, scale 0 to 100 (0 no effect, 100 complete control), read-out: Plant response rating, Wheat, Winter): 10%
plant injury at 250 g/ha (winter wheat; 250 g ai/ha, scale 0 to 100 (0 no effect, 100 complete control), read-out: Plant response rating, Wheat, Winter): 10%
plant injury at 16 g/ha (spring wheat; 16 g ai/ha, scale 0-100, read-out: Plant response rating, Wheat, Spring): 0%
plant injury at 31 g/ha (spring wheat; 31 g ai/ha, scale 0 to 100 (0 no effect, 100 complete control), read-out: Plant response rating, Wheat, Spring): 0%
plant injury at 62 g/ha (spring wheat; 62 g ai/ha, scale 0 to 100 (0 no effect, 100 complete control), read-out: Plant response rating, Wheat, Spring): 0%
plant injury at 125 g/ha (spring wheat; 125 g ai/ha, scale 0 to 100 (0 no effect, 100 complete control), read-out: Plant response rating, Wheat, Spring): 10%
plant injury at 250 g/ha (spring wheat; 250 g ai/ha, scale 0 to 100 (0 no effect, 100 complete control), read-out: Plant response rating, Wheat, Spring): 10%
Plant response rating (0 to 100), Cupgrass, Woolly (cupgrass, woolly [2]; 125 g ai/ha): 25
Plant response rating (0 to 100), Cupgrass, Woolly (cupgrass, woolly [2]; 250 g ai/ha): 25
Plant response rating, Cupgrass, Woolly (cupgrass, woolly [2]; 31 g ai/ha, 13 to 15 days): 10
Plant response rating, Cupgrass, Woolly (cupgrass, woolly [2]; 62 g ai/ha): 20
Plant response rating, Russian Thistle (Russian thistle; 16 g ai/ha, scale 0-100): 0
Plant response rating, Russian Thistle (Russian thistle; 31 g ai/ha, scale 0 to 100 (0 no effect, 100 complete control)): 0
Plant response rating, Russian Thistle (Russian thistle; 62 g ai/ha, scale 0 to 100 (0 no effect, 100 complete control)): 30
Plant response rating, Russian Thistle (Russian thistle; 125 g ai/ha, scale 0 to 100 (0 no effect, 100 complete control)): 30
Plant response rating, Russian Thistle (Russian thistle; 250 g ai/ha, scale 0 to 100 (0 no effect, 100 complete control)): 70
Plant response rating (0 to 100), Cocklebur (cocklebur; 125 g ai/ha): 55
Plant response rating (0 to 100), Cocklebur (cocklebur; 250 g ai/ha): 80
Plant response rating, Cocklebur (cocklebur; 31 g ai/ha, 13 to 15 days): 35
Plant response rating, Cocklebur (cocklebur; 62 g ai/ha): 45
